Values belong to the molecule of their own block, whether it stands above or below them.
Tests used:
EGFR T790ML858R = EGFR T790ML858R (Homo sapiens, UniProt P00533, L858R/T790M); assay: EGFR T790ML858R Lance assay; format: biochemical
Protocol: (§1) Inhibition is indicated as […] [nM] (“−”=not measured). Compounds having an activity designated as “A” provided an IC50≤100 nM; compounds having an activity designated as “B” provided an 100 nM<IC50≤500 nM; compounds having an activity designated as “C” provided an 500 nM<IC50≤1000 nM; compounds having an activity designated as “D” provided an 1000 nM<IC50≤100000 nM; and compounds having an activity designated as “E” provided an IC50>10000 nM.

H1975 = H1975 CellTiter-Glo; format: cell-based; settings: Homo sapiens, NCI-H1975; 72 h compound incubation; read-out: H1975 CTG IC50
Protocol: (§2) 2. Measurement of Cellular Activity
(§3) The CellTiter-Glo Luminescent Cell Viability Assay (Promega) is a homogeneous method of determining the number of viable cells in culture. It is based on quantification of ATP, indicating the presence of metabolically active cells. Cells are seeded on day 1 at cell numbers that assure assay linearity and optimal signal intensity. After incubation for 24 h in humidified chambers at 37° C. and 5% CO2, compounds in DMSO are added at different concentrations. Cells are further incubated for 72 h at 37° C. and 5% CO2. Cells treated with the compound vehicle DMSO are used as positive controls and cells treated with 10 μM Staurosporine serve as negative controls. At day 5 the CellTiter Glo Reagent is prepared according to the instructions of the kit (Promega Inc.): Reagent is mixed 1:1 with cell culture medium. Thereon, mixture and assay plates are equilibrated at room temperature for 20 min. Equal volumes of the reagent-medium-mixture is added to the volume of culture medium present in each well. The plates are mixed at ˜200 rpm for 2 minutes on an orbital shaker. The microplates are then incubated at room temperature for 10 minutes for stabilization of the luminescent signal. Following incubation the luminescence is recorded on a Victor microplate reader (Perkin Elmer) using a 200 ms integration time. The data is then analyzed with Excel using the XLFIT Plugin (dose response Fit 205) for IC50-determination. As quality control the Z′-factor is calculated from 16 positive and negative control values. Only assay results showing a Z′-factor ≥0.5 are used for further analysis.
as §1

EGFR wt = EGFR wt (Homo sapiens, UniProt P00533); assay: EGFR wt Lance assay; format: biochemical
Protocol: as §1

A431 = A431 CellTiter-Glo; format: cell-based; settings: Homo sapiens, A-431; 72 h compound incubation; read-out: A431 CTG IC50
Protocol: as §2, §3, §1

[1] = target: EGFR Exon 20 INSNPH Ba/F3 (Homo sapiens, UniProt P00533, DUP771-773, cells depend on it); assay: EGFR Exon 20 INSNPH Ba/F3 CellTiter-Glo; format: cell-based; settings: CellTiter-Glo, 72 h, read-out: EGFR Exon 20 INSNPH Ba/F3 CTG IC50
Protocol: as §2, §3
(§4) Inhibition is indicated as IC50 [nM] (“−”=not measured). Compounds having an activity designated as “A” provided an IC50≤100 nM; compounds having an activity designated as “B” provided an 100 nM<IC50≤500 nM; compounds having an activity designated as “C” provided an 500 nM<IC50≤1000 nM; compounds having an activity designated as “D” provided an 1000 nM<IC50≤10000 nM; and compounds having an activity designated as “E” provided an IC50>10000 nM.

[2] = target: Her2 Exon 20 INSYVMA Ba/F3 (Homo sapiens, UniProt P04626, DUP772-775, cells depend on it); assay: Her2 Exon 20 INSYVMA Ba/F3 CellTiter-Glo; format: cell-based; settings: CellTiter-Glo, 72 h, read-out: Her2 Exon 20 INSYVMA Ba/F3 CTG IC50
Protocol: as §2, §3, §4

HER2 INS YVMA = target: T1, HER2 INS YVMA (Homo sapiens, UniProt P04626, INS775YVMA); assay: Lance Kinase Activity Assay, HER2 INS YVMA (Her2 Exon 20 INSYVMA Lance); format: biochemical; settings: biochemical Lance assay
T1 construct: purchased DPF
Protocol: 1. Measurement of HER2 INS YVMA Kinase Activity
This protocol describes how the Lance Kinase Activity Assay was performed to determine IC50 values of compounds of general formula (I) against HER2 INS YVMA. The principle behind this enzymatic assay is based upon the phosphorylation of the Ulight-peptide substrate. It is detected by using a specific EU-labeled anti-phospho peptide antibody. The binding of the Eu labeled anti-phospho peptide antibody to the phosphorylated ULight labeled peptide gives rise to a FRET-signal.
Binding of an inhibitor to the kinase prevents phosphorylation of the Ulight-substrate, resulting in a loss of FRET. In table 2 is summarized the relevant information for the LANCE assay.
The compounds of general formula (I) summarized in Table 3 were serial diluted from a 10 mM DMSO stock solution 1:3 over 8 steps in a total volume of 20 μl.
For every sample, 8 μl of kinase-substrate mix was transferred into a suitable assay plate (e.g. Corning #3673). Compound was added via pintool transfer (10 nl/well) using a Biomek FX robot (BeckmanCoulter). Reaction was started by addition of 2 μl ATP working solution and mixed using variomag teleshaker (Thermo Fischer Scientific). After 1 h incubation at room temperature the reaction was stopped with 10 μl detection mix containing the Eu-labeled phosphospecific antibody and 10 mM EDTA. After a second incubation period of 1 h at room temperature the FRET signal was measured at 340 nm excitation, 665 nm and 615 nm emission (for the ULight-substrate and Eu-AB, respectively) with an Envision spectrophotometer (Perkin Elmer, Waltham, Mass., USA) with 50 μs delay and 300 μs integration time. IC50 values were determined from the sigmoidal dose response curves with the software Quattro Workflow (Quattro GmbH, Munich, Germany).

Sequence of Her2 Exon 20 INSYVMA Ba/F3 (P04626 with tags, fused parts or gaps DUP772-775): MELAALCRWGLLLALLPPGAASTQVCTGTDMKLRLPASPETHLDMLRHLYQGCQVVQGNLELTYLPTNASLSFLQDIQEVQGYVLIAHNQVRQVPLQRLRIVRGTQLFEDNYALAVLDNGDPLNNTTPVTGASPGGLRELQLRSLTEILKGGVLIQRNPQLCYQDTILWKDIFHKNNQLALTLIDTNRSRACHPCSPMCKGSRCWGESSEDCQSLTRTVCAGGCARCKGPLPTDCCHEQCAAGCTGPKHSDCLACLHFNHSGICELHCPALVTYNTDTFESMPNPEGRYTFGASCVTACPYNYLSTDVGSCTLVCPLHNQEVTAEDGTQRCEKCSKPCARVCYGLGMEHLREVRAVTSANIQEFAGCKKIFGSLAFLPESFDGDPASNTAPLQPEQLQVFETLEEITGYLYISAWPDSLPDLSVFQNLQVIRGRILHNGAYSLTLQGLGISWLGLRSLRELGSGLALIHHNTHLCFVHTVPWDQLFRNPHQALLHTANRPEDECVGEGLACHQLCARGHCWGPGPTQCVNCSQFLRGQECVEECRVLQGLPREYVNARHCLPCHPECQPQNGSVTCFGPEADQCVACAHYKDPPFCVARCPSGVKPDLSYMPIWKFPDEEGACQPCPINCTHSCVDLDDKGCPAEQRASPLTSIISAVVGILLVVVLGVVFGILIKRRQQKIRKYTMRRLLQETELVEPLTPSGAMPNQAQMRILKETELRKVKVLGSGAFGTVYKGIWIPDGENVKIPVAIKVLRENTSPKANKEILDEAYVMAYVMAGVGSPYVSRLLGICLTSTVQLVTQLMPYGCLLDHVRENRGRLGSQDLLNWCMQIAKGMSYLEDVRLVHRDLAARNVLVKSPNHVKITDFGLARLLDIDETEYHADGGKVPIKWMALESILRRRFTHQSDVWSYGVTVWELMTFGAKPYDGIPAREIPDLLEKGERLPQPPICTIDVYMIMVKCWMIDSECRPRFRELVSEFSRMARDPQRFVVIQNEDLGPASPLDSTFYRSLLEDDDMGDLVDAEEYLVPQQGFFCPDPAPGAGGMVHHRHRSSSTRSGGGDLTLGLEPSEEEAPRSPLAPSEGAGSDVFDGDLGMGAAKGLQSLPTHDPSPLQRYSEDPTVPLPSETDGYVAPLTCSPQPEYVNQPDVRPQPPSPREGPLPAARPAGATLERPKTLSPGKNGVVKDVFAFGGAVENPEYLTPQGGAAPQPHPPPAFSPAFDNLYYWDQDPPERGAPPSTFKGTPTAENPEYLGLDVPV
T1 sequence (P04626 with tags, fused parts or gaps INS775YVMA): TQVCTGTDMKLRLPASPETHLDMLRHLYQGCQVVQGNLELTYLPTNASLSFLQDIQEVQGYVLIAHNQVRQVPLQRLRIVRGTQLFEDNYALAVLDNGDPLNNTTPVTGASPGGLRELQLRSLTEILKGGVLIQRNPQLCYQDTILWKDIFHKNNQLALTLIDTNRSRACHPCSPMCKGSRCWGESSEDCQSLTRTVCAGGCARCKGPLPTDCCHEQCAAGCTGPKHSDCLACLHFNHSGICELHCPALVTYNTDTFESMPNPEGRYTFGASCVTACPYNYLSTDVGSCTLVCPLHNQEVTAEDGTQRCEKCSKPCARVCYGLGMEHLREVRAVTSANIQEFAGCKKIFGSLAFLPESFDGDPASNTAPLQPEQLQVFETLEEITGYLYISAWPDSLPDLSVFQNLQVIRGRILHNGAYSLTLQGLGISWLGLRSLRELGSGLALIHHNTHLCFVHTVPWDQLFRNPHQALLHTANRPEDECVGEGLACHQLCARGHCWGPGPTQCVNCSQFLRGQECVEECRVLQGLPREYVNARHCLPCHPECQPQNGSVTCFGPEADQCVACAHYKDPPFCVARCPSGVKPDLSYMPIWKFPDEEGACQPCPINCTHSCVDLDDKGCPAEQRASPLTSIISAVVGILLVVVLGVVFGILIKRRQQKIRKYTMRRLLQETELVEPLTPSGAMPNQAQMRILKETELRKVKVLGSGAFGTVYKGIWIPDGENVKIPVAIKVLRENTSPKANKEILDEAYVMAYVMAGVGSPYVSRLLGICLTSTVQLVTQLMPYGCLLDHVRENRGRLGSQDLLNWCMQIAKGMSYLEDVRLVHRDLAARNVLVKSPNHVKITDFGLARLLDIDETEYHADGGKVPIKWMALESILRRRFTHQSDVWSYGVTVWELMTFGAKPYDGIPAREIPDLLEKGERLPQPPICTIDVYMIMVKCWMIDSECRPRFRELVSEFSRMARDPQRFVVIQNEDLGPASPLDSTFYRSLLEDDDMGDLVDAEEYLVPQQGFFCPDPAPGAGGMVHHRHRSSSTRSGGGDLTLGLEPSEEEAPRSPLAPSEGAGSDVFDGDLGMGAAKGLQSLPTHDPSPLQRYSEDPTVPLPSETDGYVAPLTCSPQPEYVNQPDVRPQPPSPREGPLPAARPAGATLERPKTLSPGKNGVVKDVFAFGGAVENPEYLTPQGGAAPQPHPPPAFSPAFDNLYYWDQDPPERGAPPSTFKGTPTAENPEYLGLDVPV
Sequence of EGFR Exon 20 INSNPH Ba/F3 (P00533 with tags, fused parts or gaps DUP771-773): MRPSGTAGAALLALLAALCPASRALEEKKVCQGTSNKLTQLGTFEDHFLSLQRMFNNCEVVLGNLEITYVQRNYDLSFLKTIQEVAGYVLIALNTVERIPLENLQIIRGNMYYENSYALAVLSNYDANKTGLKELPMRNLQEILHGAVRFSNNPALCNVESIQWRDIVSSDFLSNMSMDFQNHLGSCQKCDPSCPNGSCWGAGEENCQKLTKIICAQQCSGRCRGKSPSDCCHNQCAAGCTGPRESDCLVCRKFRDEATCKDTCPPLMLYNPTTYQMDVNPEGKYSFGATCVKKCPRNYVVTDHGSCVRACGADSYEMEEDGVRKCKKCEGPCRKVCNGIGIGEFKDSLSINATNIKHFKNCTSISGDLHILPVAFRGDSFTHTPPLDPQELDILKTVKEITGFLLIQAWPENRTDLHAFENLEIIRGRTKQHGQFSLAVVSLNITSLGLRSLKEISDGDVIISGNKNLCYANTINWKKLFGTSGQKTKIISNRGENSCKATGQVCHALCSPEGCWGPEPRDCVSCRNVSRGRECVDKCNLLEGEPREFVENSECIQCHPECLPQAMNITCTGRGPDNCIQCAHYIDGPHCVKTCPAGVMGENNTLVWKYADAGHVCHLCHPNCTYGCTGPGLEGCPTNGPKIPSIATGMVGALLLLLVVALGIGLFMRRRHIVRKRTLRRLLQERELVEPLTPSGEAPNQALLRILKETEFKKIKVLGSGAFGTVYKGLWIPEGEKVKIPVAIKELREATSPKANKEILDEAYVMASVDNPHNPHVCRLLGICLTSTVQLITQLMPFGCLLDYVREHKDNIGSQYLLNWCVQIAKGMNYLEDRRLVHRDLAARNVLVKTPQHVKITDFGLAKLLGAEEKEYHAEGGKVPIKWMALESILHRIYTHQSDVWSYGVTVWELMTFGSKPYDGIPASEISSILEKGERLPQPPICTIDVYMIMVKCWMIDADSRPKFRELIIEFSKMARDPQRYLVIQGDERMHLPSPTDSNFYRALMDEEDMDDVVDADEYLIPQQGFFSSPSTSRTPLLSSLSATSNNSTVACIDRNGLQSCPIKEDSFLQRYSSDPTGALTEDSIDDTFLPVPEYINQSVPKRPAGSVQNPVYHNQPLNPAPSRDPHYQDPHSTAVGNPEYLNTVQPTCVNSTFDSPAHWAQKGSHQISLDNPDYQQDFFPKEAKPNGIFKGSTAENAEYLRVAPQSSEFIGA
Sequence of EGFR wt (P00533 25-1210): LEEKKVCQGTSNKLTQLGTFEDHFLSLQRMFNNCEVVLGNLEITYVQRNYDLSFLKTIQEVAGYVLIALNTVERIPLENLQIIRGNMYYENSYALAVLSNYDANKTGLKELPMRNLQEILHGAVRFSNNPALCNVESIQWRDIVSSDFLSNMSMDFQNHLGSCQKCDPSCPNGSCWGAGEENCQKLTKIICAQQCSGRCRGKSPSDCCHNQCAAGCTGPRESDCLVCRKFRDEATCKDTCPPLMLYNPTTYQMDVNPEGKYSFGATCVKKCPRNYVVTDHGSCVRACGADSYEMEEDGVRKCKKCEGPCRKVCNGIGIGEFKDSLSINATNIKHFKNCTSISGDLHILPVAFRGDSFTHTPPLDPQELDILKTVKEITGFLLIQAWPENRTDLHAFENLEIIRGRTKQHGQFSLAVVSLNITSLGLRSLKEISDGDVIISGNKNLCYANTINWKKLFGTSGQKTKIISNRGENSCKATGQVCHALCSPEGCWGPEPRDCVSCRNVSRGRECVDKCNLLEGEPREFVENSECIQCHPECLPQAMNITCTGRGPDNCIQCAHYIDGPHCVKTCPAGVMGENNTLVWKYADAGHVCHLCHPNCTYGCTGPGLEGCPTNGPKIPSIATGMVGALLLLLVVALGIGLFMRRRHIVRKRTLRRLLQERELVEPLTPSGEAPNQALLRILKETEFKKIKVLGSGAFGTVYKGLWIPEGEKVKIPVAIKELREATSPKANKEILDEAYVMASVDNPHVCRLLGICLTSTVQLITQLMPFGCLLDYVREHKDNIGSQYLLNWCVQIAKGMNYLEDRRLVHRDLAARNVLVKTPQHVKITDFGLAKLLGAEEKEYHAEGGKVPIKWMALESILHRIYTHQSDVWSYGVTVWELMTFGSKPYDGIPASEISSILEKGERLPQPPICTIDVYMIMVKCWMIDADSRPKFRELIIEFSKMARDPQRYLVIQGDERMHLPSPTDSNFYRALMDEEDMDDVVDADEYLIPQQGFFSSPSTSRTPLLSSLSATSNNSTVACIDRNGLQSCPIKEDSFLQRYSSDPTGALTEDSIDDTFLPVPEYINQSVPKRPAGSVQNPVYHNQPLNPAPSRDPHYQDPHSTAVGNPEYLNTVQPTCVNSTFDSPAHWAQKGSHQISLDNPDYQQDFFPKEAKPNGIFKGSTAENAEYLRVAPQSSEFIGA

SMILES: C=CC(=O)Nc1cc(-c2c(-c3ccc(OCCN(C)C)cc3)[nH]c3ncc(C(=O)OC(C)C)c(C)c23)ccc1C [Example 205, isopropyl 3-(3-acrylamido-4-methylphenyl)-2-(4-(2-(dimethylamino)ethoxy)phenyl)-4-methyl-1H-pyrrolo[2,3-b]pyridine-5-carboxylate]
IC50 (EGFR T790ML858R): ≤ 0.1 µM | IC50 (H1975): 0.1 to 0.5 µM | IC50 (EGFR wt): ≤ 0.1 µM | IC50 (A431): 1 to 100 µM | GI50 [1]: ≤ 0.1 µM | GI50 [2]: 0.1 to 0.5 µM | IC50 (HER2 INS YVMA): ≤ 0.1 µM

SMILES: C=CC(=O)Nc1cc(-c2c(-c3ccc(N4CCN(C)CC4)cc3)[nH]c3ncc(C(=O)NCC4CCN(C)CC4)cc23)ccc1C [Example 129, 3-(3-acrylamido-4-methylphenyl)-2-(4-(4-methylpiperazin-1-yl)phenyl)-N-((1-methylpiperidin-4-yl)methyl)-1H-pyrrolo[2,3-b]pyridine-5-carboxamide]
IC50 (EGFR T790ML858R): 0.1 to 0.5 µM | IC50 (H1975): > 10 µM | IC50 (EGFR wt): 0.1 to 0.5 µM | IC50 (A431): > 10 µM | GI50 [1]: > 10 µM | GI50 [2]: > 10 µM | IC50 (HER2 INS YVMA): 0.5 to 1 µM

SMILES: C=CC(=O)N1CCc2ccc(-c3c(-c4ccc(OCCN5CCCC5)cc4)[nH]c4nccc(OCC)c34)cc21 [Example 107, 1-(6-(4-ethoxy-2-(4-(2-(pyrrolidin-1-yl)ethoxy)phenyl)-1H-pyrrolo[2,3-b]pyridin-3-yl)indolin-1-yl)prop-2-en-1-one]
IC50 (EGFR T790ML858R): ≤ 0.1 µM | IC50 (H1975): ≤ 0.1 µM | IC50 (EGFR wt): ≤ 0.1 µM | IC50 (A431): 0.5 to 1 µM | GI50 [1]: 0.1 to 0.5 µM | GI50 [2]: 0.1 to 0.5 µM | IC50 (HER2 INS YVMA): ≤ 0.1 µM

SMILES: C=CC(=O)Nc1cc(-c2c(-c3cccc(C(=O)NCCCN4CCN(CC)CC4)c3)[nH]c3nccc(Cl)c23)ccc1C [Example 54, 3-(3-(3-acrylamido-4-methylphenyl)-4-chloro-1H-pyrrolo[2,3-b]pyridin-2-yl)-N-(3-(4-ethylpiperazin-1-yl)propyl)benzamide]
IC50 (EGFR T790ML858R): ≤ 0.1 µM | IC50 (H1975): 0.1 to 0.5 µM | IC50 (EGFR wt): ≤ 0.1 µM | IC50 (A431): 1 to 100 µM | GI50 [1]: 1 to 10 µM | GI50 [2]: 1 to 10 µM | IC50 (HER2 INS YVMA): 0.1 to 0.5 µM

Next, values leading:

IC50 (EGFR T790ML858R): ≤ 0.1 µM | IC50 (H1975): 0.5 to 1 µM | IC50 (EGFR wt): ≤ 0.1 µM | IC50 (A431): 1 to 100 µM | GI50 [1]: 0.1 to 0.5 µM | GI50 [2]: 0.1 to 0.5 µM | IC50 (HER2 INS YVMA): ≤ 0.1 µM
SMILES: C=CC(=O)Nc1cc(-c2c(-c3ccnc(N4CCN(C)CC4)c3)[nH]c3ncc(C(=O)OC(C)C)cc23)ccc1C [Example 156, isoproyl 3-(3-acrylamido-4-methylphenyl)-2-(2-(4-methylpiperazin-1-yl)pyridin-4-yl)-1H-pyrrolo[2,3-b]pyridine-5-carboxylate 2,2,2-trifluoroacetate]

IC50 (EGFR T790ML858R): ≤ 0.1 µM | IC50 (H1975): 0.1 to 0.5 µM | IC50 (EGFR wt): ≤ 0.1 µM | IC50 (A431): 1 to 100 µM | GI50 [1]: 0.5 to 1 µM | GI50 [2]: 0.5 to 1 µM | IC50 (HER2 INS YVMA): 0.1 to 0.5 µM
SMILES: C=CC(=O)Nc1cc(-c2c(-c3ccc(N4CCN(C)CC4)cc3)[nH]c3ncc(C(=O)OC4CCCCC4)cc23)ccc1C [Example 137, cyclohexyl 3-(3-acrylamido-4-methylphenyl)-2-(4-(4-methylpiperazin-1-yl)phenyl)-1H-pyrrolo[2,3-b]pyridine-5-carboxylate]
